Measurements taken from patent US12528772B2, “Formulations of T-type calcium channel modulators and methods of use thereof” (Praxis Precision Medicines, Inc., priority 2019, dated 2026).

Tested on: T-type calcium channels in the thalamocortical circuit
Experiment: Phase 1 sleep EEG in healthy volunteers (NREM sigma)
Type: in vivo, human
Conditions: FIG. 12
Protocol: This was a 2-part, Phase 1 double blind, placebo controlled trial to assess the safety, tolerability, PK, and PD (including the KSS, the KDT, the SQSQ and 24-hour EEG recordings), of single, ascending (Part A: 20, 40, and 60 mg)) and multiple, ascending (Part B: 20 and 40 mg for 8 days) doses of the 20 mg tablet (formulation 3) in healthy participants. […] Variability in Cmax and AUC increased with increasing dose following a single oral dose of the 20 mg tablet formulation (formulation 3).
The T-type calcium channels expressed in the thalamus are critically involved in the generation and modulation of sleep spindles which are prominent thalamocortical oscillations during NREM sleep. Sleep spindles are detected in the EEG as the sigma frequency band (11-15 Hz) (FIG. 12).

SMILES: CC(C)(C)NC(=O)CN1CCC(CNC(=O)c2cc(F)cc(Cl)c2)CC1 [the compound of formula (I)]
- power in the sigma frequency band (11-15 Hz), NREM sleep EEG: decrease of power in the sigma frequency band
